Assay results from PubChem BioAssay (NCI).
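Exposure lasted 48 hours, with cells grown in 96-well plates and compounds tested at five concentrations. The concentration for 50% growth inhibition is given as GI50. At the TGI there is no net growth.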

Experiments:
Test in all cases: NCI-60 cell line screen, 48 h
786-0 renal = system: 786-0 renal
A498 renal = system: A498 renal
A549 NSCLC = system: A549 NSCLC
ACHN renal = system: ACHN renal
BT-549 breast = system: BT-549 breast
CAKI-1 renal = system: CAKI-1 renal
CCRF-CEM leukemia = system: CCRF-CEM leukemia
COLO 205 colon = system: COLO 205 colon
DU-145 prostate = system: DU-145 prostate
EKVX NSCLC = system: EKVX NSCLC
HCC-2998 colon = system: HCC-2998 colon
HCT-116 colon = system: HCT-116 colon
HCT-15 colon = system: HCT-15 colon
HL-60(TB) leukemia = system: HL-60(TB) leukemia
HOP-62 NSCLC = system: HOP-62 NSCLC
HOP-92 NSCLC = system: HOP-92 NSCLC
HS 578T breast = system: HS 578T breast
HT29 colon = system: HT29 colon
K-562 leukemia = system: K-562 leukemia
KM12 colon = system: KM12 colon
LOX IMVI melanoma = system: LOX IMVI melanoma
MALME-3M melanoma = system: MALME-3M melanoma
MCF7 breast = system: MCF7 breast
MDA-MB-231 breast = system: MDA-MB-231 breast
MDA-MB-435 = system: MDA-MB-435
MOLT-4 leukemia = system: MOLT-4 leukemia
NCI-H226 lung = system: NCI-H226 lung
NCI-H23 lung = system: NCI-H23 lung
NCI-H460 lung = system: NCI-H460 lung
NCI/ADR-RES ovarian = system: NCI/ADR-RES ovarian
OVCAR-3 ovarian = system: OVCAR-3 ovarian
OVCAR-4 ovarian = system: OVCAR-4 ovarian
OVCAR-5 ovarian = system: OVCAR-5 ovarian
OVCAR-8 ovarian = system: OVCAR-8 ovarian
PC-3 prostate = system: PC-3 prostate
RPMI-8226 leukemia = system: RPMI-8226 leukemia
RXF 393 renal = system: RXF 393 renal
SF-268 CNS = system: SF-268 CNS
SF-295 CNS = system: SF-295 CNS
SF-539 CNS = system: SF-539 CNS
SK-MEL-2 melanoma = system: SK-MEL-2 melanoma
SK-MEL-28 melanoma = system: SK-MEL-28 melanoma
SK-MEL-5 melanoma = system: SK-MEL-5 melanoma
SK-OV-3 ovarian = system: SK-OV-3 ovarian
SN12C renal = system: SN12C renal
SNB-19 CNS = system: SNB-19 CNS
SNB-75 CNS = system: SNB-75 CNS
SR leukemia = system: SR leukemia
SW-620 colon = system: SW-620 colon
T-47D breast = system: T-47D breast
TK-10 renal = system: TK-10 renal
U251 CNS = system: U251 CNS
UACC-257 melanoma = system: UACC-257 melanoma
UACC-62 melanoma = system: UACC-62 melanoma
UO-31 renal = system: UO-31 renal

Q: `N#Cc1nc2c(S(=O)(=O)c3ccccc3)c(N)n(Cc3cccnc3)c2nc1C#N` was tested. Which GI50 (786-0 renal) did it give?
A: 22.2 µM

Q: What about the TGI (786-0 renal) of the same molecule?
A: 79.3 µM

Q: What about the GI50 (A498 renal) of the same molecule?
A: 17.2 µM

Q: And the TGI (A498 renal)?
A: 55.5 µM

Q: What about the GI50 (A549 NSCLC) of the same molecule?
A: > 100 µM

Q: What about the TGI (A549 NSCLC) of the same molecule?
A: > 100 µM

Q: And the GI50 (ACHN renal)?
A: 80.7 µM

Q: What about the TGI (ACHN renal) of the same molecule?
A: > 100 µM

Q: And the GI50 (BT-549 breast)?
A: 4.6 µM

Q: And the TGI (BT-549 breast)?
A: 37.3 µM

Q: What about the GI50 (CAKI-1 renal) of the same molecule?
A: 7.47 µM

Q: And the TGI (CAKI-1 renal)?
A: > 100 µM

Q: And the GI50 (CCRF-CEM leukemia)?
A: 3.86 µM

Q: And the TGI (CCRF-CEM leukemia)?
A: > 100 µM

Q: And the GI50 (COLO 205 colon)?
A: > 100 µM

Q: And the TGI (COLO 205 colon)?
A: > 100 µM

Q: What about the GI50 (DU-145 prostate) of the same molecule?
A: 24.7 µM

Q: And the TGI (DU-145 prostate)?
A: > 100 µM

Q: What about the GI50 (EKVX NSCLC) of the same molecule?
A: 81.9 µM

Q: And the TGI (EKVX NSCLC)?
A: > 100 µM

Q: What about the GI50 (HCC-2998 colon) of the same molecule?
A: > 100 µM

Q: What about the TGI (HCC-2998 colon) of the same molecule?
A: > 100 µM

Q: What about the GI50 (HCT-116 colon) of the same molecule?
A: 9.13 µM

Q: And the TGI (HCT-116 colon)?
A: > 100 µM

Q: What about the GI50 (HCT-15 colon) of the same molecule?
A: > 100 µM

Q: And the TGI (HCT-15 colon)?
A: > 100 µM

Q: What about the GI50 (HL-60(TB) leukemia) of the same molecule?
A: 3.71 µM

Q: What about the TGI (HL-60(TB) leukemia) of the same molecule?
A: > 100 µM

Q: What about the GI50 (HOP-62 NSCLC) of the same molecule?
A: 17.4 µM

Q: And the TGI (HOP-62 NSCLC)?
A: 41.4 µM

Q: What about the GI50 (HOP-92 NSCLC) of the same molecule?
A: 4.71 µM

Q: And the TGI (HOP-92 NSCLC)?
A: 28.5 µM

Q: What about the GI50 (HS 578T breast) of the same molecule?
A: 1.81 µM

Q: And the TGI (HS 578T breast)?
A: 5.52 µM

Q: And the GI50 (HT29 colon)?
A: > 100 µM

Q: And the TGI (HT29 colon)?
A: > 100 µM

Q: And the GI50 (K-562 leukemia)?
A: > 100 µM

Q: What about the TGI (K-562 leukemia) of the same molecule?
A: > 100 µM

Q: What about the GI50 (KM12 colon) of the same molecule?
A: > 100 µM

Q: What about the TGI (KM12 colon) of the same molecule?
A: > 100 µM

Q: And the GI50 (LOX IMVI melanoma)?
A: 25.8 µM

Q: And the TGI (LOX IMVI melanoma)?
A: > 100 µM

Q: What about the GI50 (MALME-3M melanoma) of the same molecule?
A: 3.7 µM

Q: And the TGI (MALME-3M melanoma)?
A: 27.3 µM

Q: And the GI50 (MCF7 breast)?
A: 13.1 µM

Q: And the TGI (MCF7 breast)?
A: > 100 µM

Q: And the GI50 (MDA-MB-231 breast)?
A: 11.8 µM

Q: And the TGI (MDA-MB-231 breast)?
A: 52.2 µM

Q: What about the GI50 (MDA-MB-435) of the same molecule?
A: > 100 µM

Q: What about the TGI (MDA-MB-435) of the same molecule?
A: > 100 µM

Q: And the GI50 (MOLT-4 leukemia)?
A: > 100 µM

Q: And the TGI (MOLT-4 leukemia)?
A: > 100 µM

Q: What about the GI50 (NCI-H226 lung) of the same molecule?
A: 28.9 µM

Q: And the TGI (NCI-H226 lung)?
A: > 100 µM

Q: And the GI50 (NCI-H23 lung)?
A: 40 µM

Q: And the TGI (NCI-H23 lung)?
A: > 100 µM

Q: And the GI50 (NCI-H460 lung)?
A: > 100 µM

Q: What about the TGI (NCI-H460 lung) of the same molecule?
A: > 100 µM

Q: And the GI50 (NCI/ADR-RES ovarian)?
A: 92.5 µM

Q: And the TGI (NCI/ADR-RES ovarian)?
A: > 100 µM

Q: And the GI50 (OVCAR-3 ovarian)?
A: 3.48 µM

Q: What about the TGI (OVCAR-3 ovarian) of the same molecule?
A: > 100 µM

Q: And the GI50 (OVCAR-4 ovarian)?
A: > 100 µM

Q: What about the TGI (OVCAR-4 ovarian) of the same molecule?
A: > 100 µM

Q: What about the GI50 (OVCAR-5 ovarian) of the same molecule?
A: > 100 µM

Q: And the TGI (OVCAR-5 ovarian)?
A: > 100 µM

Q: What about the GI50 (OVCAR-8 ovarian) of the same molecule?
A: 10.9 µM

Q: What about the TGI (OVCAR-8 ovarian) of the same molecule?
A: > 100 µM

Q: And the GI50 (PC-3 prostate)?
A: > 100 µM

Q: What about the TGI (PC-3 prostate) of the same molecule?
A: > 100 µM

Q: What about the GI50 (RPMI-8226 leukemia) of the same molecule?
A: > 100 µM

Q: And the TGI (RPMI-8226 leukemia)?
A: > 100 µM

Q: What about the GI50 (RXF 393 renal) of the same molecule?
A: 2.47 µM

Q: What about the TGI (RXF 393 renal) of the same molecule?
A: 9.1 µM

Q: And the GI50 (SF-268 CNS)?
A: 4.26 µM

Q: What about the TGI (SF-268 CNS) of the same molecule?
A: 22.7 µM

Q: And the GI50 (SF-295 CNS)?
A: 20.5 µM

Q: And the TGI (SF-295 CNS)?
A: 50.7 µM

Q: What about the GI50 (SF-539 CNS) of the same molecule?
A: 3.25 µM

Q: What about the TGI (SF-539 CNS) of the same molecule?
A: 23.7 µM

Q: And the GI50 (SK-MEL-2 melanoma)?
A: > 100 µM

Q: What about the TGI (SK-MEL-2 melanoma) of the same molecule?
A: > 100 µM

Q: What about the GI50 (SK-MEL-28 melanoma) of the same molecule?
A: 27.8 µM

Q: What about the TGI (SK-MEL-28 melanoma) of the same molecule?
A: > 100 µM

Q: And the GI50 (SK-MEL-5 melanoma)?
A: > 100 µM

Q: What about the TGI (SK-MEL-5 melanoma) of the same molecule?
A: > 100 µM

Q: What about the GI50 (SK-OV-3 ovarian) of the same molecule?
A: 18.8 µM

Q: What about the TGI (SK-OV-3 ovarian) of the same molecule?
A: 67.5 µM

Q: And the GI50 (SN12C renal)?
A: 26.6 µM

Q: And the TGI (SN12C renal)?
A: > 100 µM

Q: And the GI50 (SNB-19 CNS)?
A: 21.9 µM

Q: What about the TGI (SNB-19 CNS) of the same molecule?
A: 72.4 µM

Q: And the GI50 (SNB-75 CNS)?
A: 3.35 µM

Q: What about the TGI (SNB-75 CNS) of the same molecule?
A: 20.2 µM

Q: What about the GI50 (SR leukemia) of the same molecule?
A: 8.59 µM

Q: What about the TGI (SR leukemia) of the same molecule?
A: > 100 µM

Q: And the GI50 (SW-620 colon)?
A: > 100 µM

Q: What about the TGI (SW-620 colon) of the same molecule?
A: > 100 µM

Q: What about the GI50 (T-47D breast) of the same molecule?
A: 5.8 µM

Q: And the TGI (T-47D breast)?
A: 52.1 µM

Q: And the GI50 (TK-10 renal)?
A: 26.1 µM

Q: And the TGI (TK-10 renal)?
A: 97 µM

Q: And the GI50 (U251 CNS)?
A: 9.35 µM

Q: And the TGI (U251 CNS)?
A: 33.6 µM

Q: And the GI50 (UACC-257 melanoma)?
A: > 100 µM

Q: And the TGI (UACC-257 melanoma)?
A: > 100 µM

Q: What about the GI50 (UACC-62 melanoma) of the same molecule?
A: 20.7 µM

Q: What about the TGI (UACC-62 melanoma) of the same molecule?
A: > 100 µM

Q: And the GI50 (UO-31 renal)?
A: 13.5 µM

Q: What about the TGI (UO-31 renal) of the same molecule?
A: > 100 µM
